Measurements: ChEMBL document CHEMBL1201862, “PubChem BioAssay data set” (2004)
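All cell lines were grown in 96-well plates and treated with compound for 48 hours. Abbreviation: GI50, concentration required for 50% inhibition of growth.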 The source made the active and inactive calls. Rule as the data show it: active = GI50 up to about 1.1 µM and inactive = higher.

Legend:
Assay in all cases: growth of human tumour cells (NCI), 48 h
[1] = system: HOP-92
[2] = system: EKVX
[3] = system: HT-29
[4] = system: MOLT-4
[5] = system: 786-0
[6] = system: HCT-15
[7] = system: SF-295
[8] = system: COLO 205
[9] = system: A549
[10] = system: M19-MEL
[11] = system: CAKI-1
[12] = system: Malme-3M
[13] = system: DMS-273
[14] = system: DLD-1
[15] = system: NCI-H460
[16] = system: NCI-H522
[17] = system: RXF 631
[18] = system: SK-MEL-2
[19] = system: DMS-114
[20] = system: HCT-116
[21] = system: NCI-H226
[22] = system: SNB-78
[23] = system: UACC-257
[24] = system: OVCAR-3
[25] = system: HCC 2998
[26] = system: UO-31
[27] = system: IGROV-1
[28] = system: NCI-H23
[29] = system: HOP-62
[30] = system: SW-620
[31] = system: K562
[32] = system: LXFL 529
[33] = system: SN12C
[34] = system: OVCAR-8
[35] = system: ACHN
[36] = system: SNB-75
[37] = system: KM12
[38] = system: LOX IMVI
[39] = system: HOP-18
[40] = system: SK-MEL-5
[41] = system: HL-60
[42] = system: OVCAR-4
[43] = system: TK-10
[44] = system: SK-MEL-28
[45] = system: SF-539
[46] = system: SNB-19
[47] = system: U-251
[48] = system: SR
[49] = system: OVCAR-5
[50] = system: SK-OV-3
[51] = system: CCRF-CEM
[52] = system: M14
[53] = system: RPMI-8226
[54] = system: UACC-62
[55] = system: A498
[56] = system: XF498
[57] = system: RXF 393
[58] = system: KM-20L2
[59] = system: SF-268

O=c1[nH]ccc2c1ccn2C1CC(O)C(CO)O1 (stereo unspecified)
GI50 [1]: > 100 µM (inactive)
GI50 [2]: > 100 µM (inactive)
GI50 [3]: > 100 µM (inactive)
GI50 [4]: > 100 µM (inactive)
GI50 [5]: > 100 µM (inactive)
GI50 [6]: > 100 µM
GI50 [7]: > 100 µM (inactive)
GI50 [8]: > 100 µM (inactive)
GI50 [9]: > 100 µM (inactive)
GI50 [10]: > 100 µM (inactive)
GI50 [11]: > 100 µM (inactive)
GI50 [12]: > 100 µM (inactive)
GI50 [13]: > 100 µM (inactive)
GI50 [14]: > 100 µM (inactive)
GI50 [15]: > 100 µM (inactive)
GI50 [16]: > 100 µM (inactive)
GI50 [17]: > 100 µM (inactive)
GI50 [18]: > 100 µM (inactive)
GI50 [19]: > 100 µM (inactive)
GI50 [20]: > 100 µM (inactive)
GI50 [21]: > 100 µM (inactive)
GI50 [22]: > 100 µM (inactive)
GI50 [23]: > 100 µM (inactive)
GI50 [24]: > 100 µM (inactive)
GI50 [25]: > 100 µM (inactive)
GI50 [26]: > 100 µM (inactive)
GI50 [27]: > 100 µM (inactive)
GI50 [28]: > 100 µM (inactive)
GI50 [29]: > 100 µM (inactive)
GI50 [30]: > 100 µM (inactive)
GI50 [31]: > 100 µM (inactive)
GI50 [32]: > 100 µM (inactive)
GI50 [33]: > 100 µM (inactive)
GI50 [34]: > 100 µM (inactive)
GI50 [35]: > 100 µM (inactive)
GI50 [36]: 46.5 µM (inactive)
GI50 [37]: > 100 µM (inactive)
GI50 [38]: > 100 µM (inactive)
GI50 [39]: > 100 µM (inactive)
GI50 [40]: > 100 µM (inactive)
GI50 [41]: > 100 µM (inactive)
GI50 [42]: > 100 µM (inactive)
GI50 [43]: > 100 µM (inactive)
GI50 [44]: > 100 µM (inactive)
GI50 [45]: > 100 µM (inactive)
GI50 [46]: > 100 µM (inactive)
GI50 [47]: > 100 µM (inactive)
GI50 [48]: > 100 µM (inactive)
GI50 [49]: > 100 µM (inactive)
GI50 [50]: > 100 µM (inactive)
GI50 [51]: > 100 µM (inactive)
GI50 [52]: > 100 µM (inactive)
GI50 [53]: > 100 µM (inactive)
GI50 [54]: > 100 µM (inactive)
GI50 [55]: > 100 µM (inactive)

C#CCN(N=O)C(=O)NCCCC(NC(C)=O)C(=O)NCc1ccccc1 (stereo unspecified)
GI50 [1]: > 100 µM (inactive)
GI50 [2]: > 100 µM (inactive)
GI50 [3]: > 100 µM (inactive)
GI50 [4]: 15.3 µM (inactive)
GI50 [5]: > 100 µM (inactive)
GI50 [6]: > 100 µM
GI50 [7]: > 100 µM (inactive)
GI50 [8]: 66.4 µM (inactive)
GI50 [9]: > 100 µM (inactive)
GI50 [10]: > 100 µM (inactive)
GI50 [11]: 54.6 µM (inactive)
GI50 [12]: > 100 µM (inactive)
GI50 [14]: > 100 µM (inactive)
GI50 [15]: 28.8 µM (inactive)
GI50 [16]: 29.9 µM (inactive)
GI50 [17]: > 100 µM (inactive)
GI50 [19]: > 100 µM (inactive)
GI50 [20]: 73.6 µM (inactive)
GI50 [21]: > 100 µM (inactive)
GI50 [22]: > 100 µM (inactive)
GI50 [23]: > 100 µM (inactive)
GI50 [24]: > 100 µM (inactive)
GI50 [56]: 0.0526 µM (active)
GI50 [25]: > 100 µM (inactive)
GI50 [26]: > 100 µM (inactive)
GI50 [27]: > 100 µM (inactive)
GI50 [28]: > 100 µM (inactive)
GI50 [29]: > 100 µM (inactive)
GI50 [30]: 92.5 µM (inactive)
GI50 [31]: 43.3 µM (inactive)
GI50 [32]: > 100 µM (inactive)
GI50 [33]: > 100 µM (inactive)
GI50 [34]: > 100 µM (inactive)
GI50 [35]: 56.2 µM (inactive)
GI50 [36]: 96.8 µM (inactive)
GI50 [37]: > 100 µM (inactive)
GI50 [38]: 82.2 µM (inactive)
GI50 [57]: > 100 µM (inactive)
GI50 [58]: > 100 µM (inactive)
GI50 [39]: > 100 µM (inactive)
GI50 [40]: > 100 µM (inactive)
GI50 [59]: > 100 µM (inactive)
GI50 [42]: > 100 µM (inactive)
GI50 [43]: > 100 µM (inactive)
GI50 [44]: > 100 µM (inactive)
GI50 [45]: 96.2 µM (inactive)
GI50 [46]: > 100 µM (inactive)
GI50 [47]: > 100 µM (inactive)
GI50 [48]: 6.3 µM (inactive)
GI50 [49]: > 100 µM (inactive)
GI50 [50]: > 100 µM (inactive)
GI50 [51]: 11.3 µM (inactive)
GI50 [52]: > 100 µM (inactive)
GI50 [53]: 15.9 µM (inactive)
GI50 [54]: 81.7 µM (inactive)
GI50 [55]: > 100 µM (inactive)
